Values after ≈ are worked out from the molar mass of the structure shown. Active and inactive are the calls of the source. The calls are words filed in the database; no cut-off is given here.
Legend:
[1] = system: JIM3 (Homo sapiens); assay: Antiproliferative activity against NIK-independent human JIM3 cells assessed as inhibition of cell growth incubated for 72 hrs by XTT assay; conditions: JIM3, 72 h
[2] = system: Maver1; assay: Antiproliferative activity against NIK-activated human MAVER-1 cells assessed as inhibition of cell growth incubated for 72 hrs by XTT assay; assay type: functional
[3] = system: MCF7; assay: Antiproliferative activity against NIK-independent human MCF7 cells assessed as inhibition of cell growth incubated for 72 hrs by XTT assay; assay type: functional
[4] = system: Z-138; assay: Antiproliferative activity against NIK-activated human Z138 cells assessed as inhibition of cell growth incubated for 72 hrs by XTT assay; assay type: functional
[5] = Lipophilicity, log D of the compound at pH 7.4; assay type: physicochemical; conditions: buffer
[6] = Solubility of the compound; assay type: physicochemical
[7] = molecular target: Aurora kinase B (Homo sapiens) (UniProt Q96GD4); assay: Inhibition of Aurora B (unknown origin) at 1 uM relative to control
Sequence of Aurora kinase B (Homo sapiens) (Q96GD4 whole entry): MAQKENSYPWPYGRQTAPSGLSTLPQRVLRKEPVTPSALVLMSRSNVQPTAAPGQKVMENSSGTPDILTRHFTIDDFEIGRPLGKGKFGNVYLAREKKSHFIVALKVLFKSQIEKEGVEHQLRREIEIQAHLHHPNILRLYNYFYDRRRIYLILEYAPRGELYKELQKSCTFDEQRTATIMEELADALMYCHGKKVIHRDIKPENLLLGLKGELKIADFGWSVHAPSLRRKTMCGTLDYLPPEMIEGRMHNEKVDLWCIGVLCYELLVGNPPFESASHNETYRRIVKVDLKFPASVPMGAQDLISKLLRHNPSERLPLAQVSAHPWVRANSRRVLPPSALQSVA

[8] = Intrinsic clearance in rat hepatocytes measured per million of cells; assay type: ADME, cell-based, Hepatocyte; conditions: read-out: CLH
[9] = molecular target: T1, Serine/threonine-protein kinase Sgk1 (Homo sapiens) (UniProt O00141); assay: Inhibition of SGK1 (unknown origin) at 1 uM relative to control
T1 sequence (whole entry): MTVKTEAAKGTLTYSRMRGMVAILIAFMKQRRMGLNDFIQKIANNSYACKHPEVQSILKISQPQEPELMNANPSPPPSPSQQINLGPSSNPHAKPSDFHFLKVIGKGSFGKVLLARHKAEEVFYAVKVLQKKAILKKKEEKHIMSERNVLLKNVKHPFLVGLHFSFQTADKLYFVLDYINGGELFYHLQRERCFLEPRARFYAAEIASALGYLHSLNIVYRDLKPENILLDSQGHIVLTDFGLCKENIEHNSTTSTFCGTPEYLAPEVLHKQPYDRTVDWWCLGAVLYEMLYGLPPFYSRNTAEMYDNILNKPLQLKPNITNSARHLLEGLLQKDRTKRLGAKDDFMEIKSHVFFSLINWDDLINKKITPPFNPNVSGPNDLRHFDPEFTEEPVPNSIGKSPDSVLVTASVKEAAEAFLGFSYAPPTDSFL

[10] = molecular target: Serine/threonine-protein kinase SIK2 (Homo sapiens) (UniProt Q9H0K1); assay: Inhibition of SIK2 (unknown origin) at 1 uM relative to control
Sequence of Serine/threonine-protein kinase SIK2 (Homo sapiens) (Q9H0K1 whole entry, looked up): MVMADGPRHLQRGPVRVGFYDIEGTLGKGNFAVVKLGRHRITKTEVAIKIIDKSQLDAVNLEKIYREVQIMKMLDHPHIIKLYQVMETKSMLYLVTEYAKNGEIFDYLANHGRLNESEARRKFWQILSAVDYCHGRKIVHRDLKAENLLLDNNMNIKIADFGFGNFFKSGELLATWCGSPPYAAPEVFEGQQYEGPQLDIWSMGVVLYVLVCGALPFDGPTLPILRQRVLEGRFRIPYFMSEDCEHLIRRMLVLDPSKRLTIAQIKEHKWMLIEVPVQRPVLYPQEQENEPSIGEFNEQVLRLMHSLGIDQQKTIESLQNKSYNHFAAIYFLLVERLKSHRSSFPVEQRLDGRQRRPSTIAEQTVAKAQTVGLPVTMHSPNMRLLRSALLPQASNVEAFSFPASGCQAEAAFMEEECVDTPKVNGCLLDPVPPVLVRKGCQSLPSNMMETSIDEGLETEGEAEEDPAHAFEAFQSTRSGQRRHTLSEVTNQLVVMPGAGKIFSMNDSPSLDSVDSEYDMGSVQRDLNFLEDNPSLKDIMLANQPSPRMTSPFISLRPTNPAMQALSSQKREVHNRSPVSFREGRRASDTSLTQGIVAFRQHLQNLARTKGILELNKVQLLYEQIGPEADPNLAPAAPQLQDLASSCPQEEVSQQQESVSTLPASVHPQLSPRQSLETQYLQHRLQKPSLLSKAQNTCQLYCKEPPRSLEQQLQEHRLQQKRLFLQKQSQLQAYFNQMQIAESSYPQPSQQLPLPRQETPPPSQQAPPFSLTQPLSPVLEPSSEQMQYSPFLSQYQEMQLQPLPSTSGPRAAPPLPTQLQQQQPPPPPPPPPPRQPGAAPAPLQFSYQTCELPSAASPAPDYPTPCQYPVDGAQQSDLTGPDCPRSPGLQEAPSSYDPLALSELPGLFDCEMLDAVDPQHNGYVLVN

[11] = molecular target: Receptor-interacting serine/threonine-protein kinase 2 (Homo sapiens) (UniProt O43353); assay: Inhibition of RIPK2 (unknown origin) at 1 uM relative to control
Sequence of Receptor-interacting serine/threonine-protein kinase 2 (Homo sapiens) (O43353 whole entry): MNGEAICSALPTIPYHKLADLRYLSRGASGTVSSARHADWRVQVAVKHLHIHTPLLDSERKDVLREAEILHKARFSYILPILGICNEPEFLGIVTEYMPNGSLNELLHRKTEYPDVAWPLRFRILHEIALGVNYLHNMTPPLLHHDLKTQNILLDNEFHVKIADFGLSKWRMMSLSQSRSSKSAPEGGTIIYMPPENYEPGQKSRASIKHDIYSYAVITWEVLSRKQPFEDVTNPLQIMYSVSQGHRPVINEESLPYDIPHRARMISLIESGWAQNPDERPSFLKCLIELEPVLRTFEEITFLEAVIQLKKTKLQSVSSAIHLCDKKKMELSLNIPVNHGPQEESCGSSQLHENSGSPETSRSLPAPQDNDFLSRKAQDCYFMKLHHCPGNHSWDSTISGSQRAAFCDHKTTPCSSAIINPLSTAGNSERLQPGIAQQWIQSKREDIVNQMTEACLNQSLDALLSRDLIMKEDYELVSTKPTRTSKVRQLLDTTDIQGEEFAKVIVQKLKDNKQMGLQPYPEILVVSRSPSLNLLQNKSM

[12] = molecular target: Mitogen-activated protein kinase kinase kinase 14 (Homo sapiens) (UniProt Q99558); assay: Covalent binding affinity to NIK (unknown origin) assessed as protein-compound adduct formation by measuring increase in 330Da mass at 100 uM incubated for 6 hrs by mass spectrometry
Sequence of Mitogen-activated protein kinase kinase kinase 14 (Homo sapiens) (Q99558 whole entry, looked up, the tested form may be a part): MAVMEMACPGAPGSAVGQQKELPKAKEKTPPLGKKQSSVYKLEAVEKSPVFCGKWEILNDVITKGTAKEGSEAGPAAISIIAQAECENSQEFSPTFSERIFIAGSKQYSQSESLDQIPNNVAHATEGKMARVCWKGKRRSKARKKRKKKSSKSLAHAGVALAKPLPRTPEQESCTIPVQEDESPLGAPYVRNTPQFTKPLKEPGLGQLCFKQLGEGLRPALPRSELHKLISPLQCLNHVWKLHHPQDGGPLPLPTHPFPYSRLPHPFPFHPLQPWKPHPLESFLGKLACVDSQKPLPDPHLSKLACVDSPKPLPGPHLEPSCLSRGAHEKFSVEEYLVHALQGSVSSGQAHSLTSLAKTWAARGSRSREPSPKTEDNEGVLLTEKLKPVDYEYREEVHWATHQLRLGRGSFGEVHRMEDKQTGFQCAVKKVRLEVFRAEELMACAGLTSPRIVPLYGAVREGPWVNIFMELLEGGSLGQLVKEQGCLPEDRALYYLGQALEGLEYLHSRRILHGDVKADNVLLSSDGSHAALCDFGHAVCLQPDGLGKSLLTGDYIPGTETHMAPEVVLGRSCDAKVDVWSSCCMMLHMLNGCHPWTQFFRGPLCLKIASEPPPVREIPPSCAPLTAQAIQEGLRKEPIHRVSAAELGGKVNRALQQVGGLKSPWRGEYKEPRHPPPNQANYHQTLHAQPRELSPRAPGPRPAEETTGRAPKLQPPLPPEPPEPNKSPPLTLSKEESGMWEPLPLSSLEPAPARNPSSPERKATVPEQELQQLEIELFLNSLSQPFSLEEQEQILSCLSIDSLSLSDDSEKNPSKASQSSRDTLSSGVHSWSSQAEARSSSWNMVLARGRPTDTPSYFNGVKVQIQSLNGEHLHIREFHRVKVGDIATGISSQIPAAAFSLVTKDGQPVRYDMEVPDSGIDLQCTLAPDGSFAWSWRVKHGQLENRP

[13] = molecular target: Receptor tyrosine-protein kinase erbB-4 (Homo sapiens) (UniProt Q15303); assay: Inhibition of HER4 (unknown origin) at 1 uM relative to control
[14] = Apparent permeability across basolateral to apical side in human Caco-2 cells; assay type: ADME, cell-based
[15] = molecular target: Mitogen-activated protein kinase kinase kinase 14 (Homo sapiens) (UniProt Q99558); assay: Covalent binding affinity to NIK (unknown origin) assessed as labeling at Cys444 residue using Ala438-Arg451 peptide incubated for 18 hrs measured after tryptic digestion by MS/MS fragmentation spectral analysis
[16] = molecular target: Tyrosine-protein kinase BTK (Homo sapiens) (UniProt Q06187); assay: Inhibition of BTK (unknown origin) at 1 uM relative to control
Sequence of Tyrosine-protein kinase BTK (Homo sapiens) (Q06187 whole entry): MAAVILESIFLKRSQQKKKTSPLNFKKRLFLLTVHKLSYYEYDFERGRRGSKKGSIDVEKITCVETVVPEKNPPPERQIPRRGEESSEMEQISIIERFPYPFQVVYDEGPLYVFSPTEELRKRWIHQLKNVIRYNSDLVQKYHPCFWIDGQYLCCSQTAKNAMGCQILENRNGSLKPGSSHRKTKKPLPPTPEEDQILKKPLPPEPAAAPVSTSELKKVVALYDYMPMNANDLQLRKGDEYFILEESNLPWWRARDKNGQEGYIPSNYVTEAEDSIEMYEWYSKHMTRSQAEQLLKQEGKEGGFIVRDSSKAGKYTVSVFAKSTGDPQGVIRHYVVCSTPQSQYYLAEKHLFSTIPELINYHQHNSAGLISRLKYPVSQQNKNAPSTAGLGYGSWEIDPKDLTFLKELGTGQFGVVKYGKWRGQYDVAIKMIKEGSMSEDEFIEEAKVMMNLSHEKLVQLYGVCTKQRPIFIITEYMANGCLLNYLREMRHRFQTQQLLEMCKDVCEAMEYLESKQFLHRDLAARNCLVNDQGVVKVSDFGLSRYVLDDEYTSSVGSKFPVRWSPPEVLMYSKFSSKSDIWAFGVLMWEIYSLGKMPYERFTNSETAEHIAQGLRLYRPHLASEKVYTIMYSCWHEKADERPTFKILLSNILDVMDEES

[17] = Intrinsic clearance in human hepatocytes measured per million of cells; assay type: ADME, cell-based, Hepatocyte; conditions: read-out: CLH
[18] = species on record: Homo sapiens; assay: Inhibition of VEGFR (unknown origin) at 1 uM relative to control
[19] = molecular target: Mitogen-activated protein kinase kinase kinase 9 (Homo sapiens) (UniProt P80192); assay: Inhibition of MLK1 (unknown origin) at 1 uM relative to control
[20] = molecular target: T2, Mitogen-activated protein kinase kinase kinase 7 (Homo sapiens) (UniProt O43318); assay: Inhibition of TAK1 (unknown origin) at 1 uM relative to control
T2 sequence (whole entry): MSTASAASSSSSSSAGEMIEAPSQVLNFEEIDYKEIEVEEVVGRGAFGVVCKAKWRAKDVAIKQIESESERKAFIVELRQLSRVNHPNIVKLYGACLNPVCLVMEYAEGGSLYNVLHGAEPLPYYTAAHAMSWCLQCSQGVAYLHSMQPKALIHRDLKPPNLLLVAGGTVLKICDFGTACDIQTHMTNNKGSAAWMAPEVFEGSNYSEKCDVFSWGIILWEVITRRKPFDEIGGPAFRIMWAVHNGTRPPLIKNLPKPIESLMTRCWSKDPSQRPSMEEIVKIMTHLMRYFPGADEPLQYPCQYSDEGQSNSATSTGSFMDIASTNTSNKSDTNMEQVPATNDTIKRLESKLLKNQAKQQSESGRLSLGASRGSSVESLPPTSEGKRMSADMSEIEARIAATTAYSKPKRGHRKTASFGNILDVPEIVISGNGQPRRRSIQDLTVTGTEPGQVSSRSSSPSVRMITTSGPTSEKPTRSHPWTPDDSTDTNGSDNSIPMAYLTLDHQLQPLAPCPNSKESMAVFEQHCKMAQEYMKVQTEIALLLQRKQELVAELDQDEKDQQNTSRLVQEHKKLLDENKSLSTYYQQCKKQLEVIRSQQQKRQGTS

[21] = Apparent permeability across apical to basolateral side in human Caco-2 cells; assay type: ADME, cell-based
[22] = molecular target: Platelet-derived growth factor receptor alpha (Homo sapiens) (UniProt P16234); assay: Inhibition of PDGFRA (unknown origin) at 1 uM relative to control
Sequence of Platelet-derived growth factor receptor alpha (Homo sapiens) (P16234 whole entry, the tested form may be a part): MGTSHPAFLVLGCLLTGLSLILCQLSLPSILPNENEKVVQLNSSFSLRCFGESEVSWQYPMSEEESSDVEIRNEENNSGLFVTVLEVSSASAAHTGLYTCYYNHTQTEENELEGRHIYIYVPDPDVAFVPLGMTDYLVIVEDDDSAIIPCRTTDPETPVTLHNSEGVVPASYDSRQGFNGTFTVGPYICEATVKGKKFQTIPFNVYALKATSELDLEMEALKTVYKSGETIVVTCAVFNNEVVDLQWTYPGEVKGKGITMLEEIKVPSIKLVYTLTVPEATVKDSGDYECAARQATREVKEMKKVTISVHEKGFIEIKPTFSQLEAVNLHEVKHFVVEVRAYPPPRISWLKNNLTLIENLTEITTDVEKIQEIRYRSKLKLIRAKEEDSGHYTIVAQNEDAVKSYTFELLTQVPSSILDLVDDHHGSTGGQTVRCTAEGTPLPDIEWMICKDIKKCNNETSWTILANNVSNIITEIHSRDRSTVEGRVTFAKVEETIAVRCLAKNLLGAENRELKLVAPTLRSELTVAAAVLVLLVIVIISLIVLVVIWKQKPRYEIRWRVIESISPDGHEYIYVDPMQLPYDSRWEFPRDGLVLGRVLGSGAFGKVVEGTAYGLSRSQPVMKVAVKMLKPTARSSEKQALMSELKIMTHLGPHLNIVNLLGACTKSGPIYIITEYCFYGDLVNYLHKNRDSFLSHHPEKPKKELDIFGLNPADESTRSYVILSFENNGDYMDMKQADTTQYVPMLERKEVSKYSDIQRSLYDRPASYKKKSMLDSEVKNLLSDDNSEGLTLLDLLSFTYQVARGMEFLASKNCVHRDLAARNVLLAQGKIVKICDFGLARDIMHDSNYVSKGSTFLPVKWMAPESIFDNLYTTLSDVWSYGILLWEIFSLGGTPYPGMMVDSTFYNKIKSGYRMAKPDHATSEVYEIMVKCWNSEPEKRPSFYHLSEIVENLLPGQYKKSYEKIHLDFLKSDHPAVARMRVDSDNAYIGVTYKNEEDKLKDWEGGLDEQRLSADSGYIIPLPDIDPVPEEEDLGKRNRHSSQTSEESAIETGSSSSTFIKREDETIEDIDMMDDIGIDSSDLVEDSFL

[23] = molecular target: Mitogen-activated protein kinase kinase kinase 14 (Homo sapiens, UniProt Q99558, S549D); assay: Inhibition of His6-tagged human NIK (330 to 680 residues) S549D mutant expressed in baculovirus-infected Sf9 cells incubated for 30 mins in presence of ATP by ADP-GloTM assay
Sequence of Mitogen-activated protein kinase kinase kinase 14 (Q99558 whole entry S549D, the tested form may be a part): as the sequence (Q99558 whole entry, looked up, the tested form may be a part) above, with S549D counted along it

## COc1cc(C(N)=O)nc(-c2cccc(C#C[C@]3(O)CCN(C)C3=O)c2)c1
[1]
  GI50: > 31.6 µM
[2]
  GI50: 3.98 µM
[3]
  GI50: > 31.6 µM
[4]
  GI50: 20 µM

## C#Cc1ccnc(C#Cc2ccc3ncn(-c4ccnc(N)n4)c3c2)n1
[5]
  logD: 2.8
[6]
  solubility: 3.8 µM (≈ 1.28 µg/mL)
[7]
  inhibition: > 50%
[8]
  hepatocyte CLint: 915 µL/min/1e6 cells
[9]
  inhibition: > 50%
[10]
  inhibition: > 50%
[1]
  GI50: 0.501 µM
[11]
  inhibition: > 50%
[12]
  Activity: Active
[13]
  inhibition: > 50%
[14]
  Papp B→A: 0.22 ×10⁻⁶ cm/s
[15]
  Activity: Active
[2]
  GI50: 0.398 µM
[16]
  inhibition: > 50%
[17]
  hepatocyte CLint: 382 µL/min/1e6 cells
[18]
  inhibition: > 50%
[3]
  GI50: 0.501 µM
[19]
  inhibition: > 50%
[20]
  inhibition: > 50%
[21]
  Papp A→B: 0.33 ×10⁻⁶ cm/s
[22]
  inhibition: > 50%
[23]
  IC50: 0.2 µM
[4]
  GI50: 0.631 µM

## C#Cc1cc(C#Cc2ccc3ncn(-c4ccnc(N)n4)c3c2)ncn1
[23]
  IC50: 50.1 µM

## C#Cc1cc(C#Cc2ccc3ncn(-c4ccnc(N)n4)c3c2)ccn1
[23]
  IC50: 31.6 µM

## C=Cc1cc(C#Cc2ccc3ncn(-c4ccnc(N)n4)c3c2)ccn1
[23]
  IC50: 20 µM

## C=Cc1ccnc(C#Cc2ccc3ncn(-c4ccnc(N)n4)c3c2)c1
[1]
  GI50: 1.58 µM
[2]
  GI50: 0.501 µM
[3]
  GI50: 1.26 µM
[23]
  IC50: 1.58 µM
[4]
  GI50: 0.398 µM

## C=CC(=O)NCCCCc1ccc2ncn(-c3ccnc(N)n3)c2c1
[23]
  IC50: 501 µM

## C=Cc1ccc(C#Cc2ccc3ncn(-c4ccnc(N)n4)c3c2)cn1
[23]
  IC50: 79.4 µM

## CCc1ccc2ncn(-c3ccnc(N)n3)c2c1
[23]
  IC50: 79.4 µM

## C#Cc1cnc(C#Cc2ccc3ncn(-c4ccnc(N)n4)c3c2)nc1
[23]
  IC50: 25.1 µM

## C#Cc1ncc(C#Cc2ccc3ncn(-c4ccnc(N)n4)c3c2)cn1
[23]
  IC50: 79.4 µM

## CC(O)(C#Cc1ccc2c(c1)N(c1nc(N)ncc1Cl)CC2)c1nccs1 (stereo not drawn)
[23]
  IC50: 0.00398 µM

## C=Cc1ccnc(C#Cc2ccc3ncn(-c4ccnc(N)n4)c3c2)n1
[1]
  GI50: 1.58 µM
[2]
  GI50: 1.26 µM
[3]
  GI50: 0.631 µM
[23]
  IC50: 1.58 µM
[4]
  GI50: 1 µM

## CC(=O)NCCCc1ccc2ncn(-c3ccnc(N)n3)c2c1
[23]
  IC50: > 100 µM

## C=Cc1nccc(C#Cc2ccc3ncn(-c4ccnc(N)n4)c3c2)n1
[23]
  IC50: 39.8 µM

## C#Cc1cncc(C#Cc2ccc3ncn(-c4ccnc(N)n4)c3c2)c1
[23]
  IC50: 63.1 µM

## COCCOc1cnc(N)nc1-c1c[nH]c2ccc(C#CC(C)(C)O)cc12
[23]
  IC50: 0.0398 µM

## Cc1ccnc(C#Cc2ccc3ncn(-c4ccnc(N)n4)c3c2)n1
[23]
  IC50: 1.58 µM

## C#Cc1ccc2ncn(-c3ccnc(N)n3)c2c1
[23]
  IC50: 0.251 µM

## C=CC(=O)NCC#Cc1ccc2ncn(-c3ccnc(N)n3)c2c1
[23]
  IC50: 6.31 µM

## C#Cc1cncc(C#Cc2ccc3ncn(-c4ccnc(N)n4)c3c2)n1
[23]
  IC50: 6.31 µM

## C=CC(=O)NCCCc1ccc2ncn(-c3ccnc(N)n3)c2c1
[23]
  IC50: 501 µM

## C#Cc1cccc(C#Cc2ccc3ncn(-c4ccnc(N)n4)c3c2)n1
[23]
  IC50: 3.16 µM

## CC(=O)NCCCCc1ccc2ncn(-c3ccnc(N)n3)c2c1
[23]
  IC50: 398 µM

## C#Cc1ccnc(C#Cc2ccc3ncn(-c4ccnc(N)n4)c3c2)c1
[1]
  GI50: > 7.94 µM
[2]
  GI50: 10 µM
[3]
  GI50: > 10 µM
[23]
  IC50: 0.316 µM
[4]
  GI50: 7.94 µM

## C#Cc1nccc(C#Cc2ccc3ncn(-c4ccnc(N)n4)c3c2)n1
[23]
  IC50: 39.8 µM

Reference: ChEMBL document CHEMBL5149995, “An Alkynylpyrimidine-Based Covalent Inhibitor That Targets a Unique Cysteine in NF-κB-Inducing Kinase” (J Med Chem, 2021)
